These results are taken from ChEMBL document CHEMBL5053556, “Design, Synthesis, and Biological Evaluation of a Novel Series of Teriflunomide Derivatives as Potent Human Dihydroorotate Dehydrogenase Inhibitors for Malignancy Treatment” (J Med Chem, 2021).

Values after ≈ are worked out from the molar mass of the structure shown.

The target of data set [1] is T1, Dihydroorotate dehydrogenase (quinone), mitochondrial (Homo sapiens, UniProt Q02127). The settings on record: dose 100.0 nM, time 30.0 min.
T1 sequence (Q02127 whole entry): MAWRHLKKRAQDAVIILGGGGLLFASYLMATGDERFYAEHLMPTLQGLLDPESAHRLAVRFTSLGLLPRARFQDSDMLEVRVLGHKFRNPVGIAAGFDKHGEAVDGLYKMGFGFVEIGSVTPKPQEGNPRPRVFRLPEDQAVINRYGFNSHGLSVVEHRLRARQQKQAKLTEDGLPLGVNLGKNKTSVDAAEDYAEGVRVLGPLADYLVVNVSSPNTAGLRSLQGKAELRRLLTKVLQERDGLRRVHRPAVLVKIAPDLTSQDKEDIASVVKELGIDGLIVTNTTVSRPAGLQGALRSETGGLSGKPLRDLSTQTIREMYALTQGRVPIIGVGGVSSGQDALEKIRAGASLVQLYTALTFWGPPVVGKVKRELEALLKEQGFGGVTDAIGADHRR
In data set [2] the target is T1, Dihydroorotate dehydrogenase (quinone), mitochondrial.
Description: Inhibition of human DHODH using dihydroorotate substrate preincubated for 30 mins followed by substrate addition by DCIP based microplate reader analysis
In the next data set the test system is Raji. Description: Antiproliferative activity against human Raji cells assessed as cell growth inhibition incubated for 96 hrs by MTT assay. In kind it is functional, cell-based. On the technique in general: Formazan colour is commonly taken as a measure of viable cells.
Another data set in a line: physchem. To be noted: aqueous.
A short description of another data set: in vitro. To be noted: human, L02 cells and Raji cells.
A further data set relates to L02. Kind of data set: cells. In kind it is ADME, cell-based. To be noted: Homo sapiens, L02, 96 h.
The next data set concerns A-375. Description: Antiproliferative activity against human A-375 cells assessed as cell growth inhibition incubated for 96 hrs by MTT assay. To be noted: A-375, 96 h. Type of data set: functional, cell-based.
The next data set has as its system HCT-116. Description: Antiproliferative activity against human HCT-116 cells assessed as cell growth inhibition incubated for 96 hrs by MTT assay. Type of data set: functional, cell-based. The settings on record: HCT-116, 96 h.
For another data set, the system named is K562. Kind of data set: Antiproliferative activity against human K562 cells assessed as cell growth inhibition incubated for 96 hrs by MTT assay. To be noted: K562, 96 h. Type of data set: functional, cell-based.
The subject of another data set is A549. Kind of data set: Antiproliferative activity against human A549 cells assessed as cell growth inhibition incubated for 96 hrs by MTT assay. The settings on record: A549, 96 h. Type of data set: functional, cell-based.
Another data set has as its system SK-MEL-28. Description: Antiproliferative activity against human SK-MEL-28 cells assessed as cell growth inhibition incubated for 96 hrs by MTT assay. Type of data set: functional, cell-based. To be noted: SK-MEL-28, 96 h.

Description for L02: Cytotoxicity against human L02 cells assessed as cell growth inhibition incubated for 96 hrs by MTT assay
Description for in vitro: Selectivity index, ratio of IC50 for human L02 cells to IC50 for human Raji cells
Description for physchem: Aqueous solubility of compound by UPLC method

Turning to `CCOc1cc(NC(=O)/C(C#N)=C(/C)O)c(F)cc1C(=O)Nc1c(F)cccc1Br`, the inhibition (usually the change of the read-out against control, counted positive when it falls) in [1] came to 72.7%. Besides, the IC50 (in general, the concentration needed to halve the response being measured) in data set [2] stood at 40 nM.
Compound `C/C(O)=C(\C#N)C(=O)Nc1cc(OC(C)C)c(C(=O)Nc2cccc(F)c2)cc1F` displayed an inhibition in data set [1] of 22.1%.
Same read-out and setting: in the case of `C/C(O)=C(\C#N)C(=O)Nc1cc(OC(C)C)c(C(=O)Nc2ccc(F)cc2)cc1F` it was 7.5%.
Regarding `C/C(O)=C(\C#N)C(=O)Nc1cc(O[C@@H](C)C(F)(F)F)c(C(=O)Nc2c(Cl)cccc2Br)cc1F`, the IC50 in the data set with Raji stood at 32.2 nM; in [2], 6.2 nM; in the data set on L02, 506 nM. Further, the concentration in solution in the data set “physchem” (solubility) was 2900 µg/mL (≈ 5.14 mM). Further, in [1], the inhibition is 94.4%. The selectivity ratio in the data set “in vitro” came out at 15.8.
`C/C(O)=C(\C#N)C(=O)Nc1cc(OC(C)C)c(C(=O)Nc2ccccc2F)cc1F`: the inhibition in data set [1] was found to be 23%.
In data set [1], `C/C(O)=C(\C#N)C(=O)Nc1cc(OC(C)C)c(C(=O)Nc2ccccc2Br)cc1F` gave an inhibition of 68.5%. Moreover, half-maximal inhibition in data set [2] (IC50) was put at 41.5 nM.
The matching figures for `CCOc1cc(NC(=O)/C(C#N)=C(/C)O)c(F)cc1C(=O)Nc1c(F)cccc1Cl`: 63.8% and 44.1 nM.
In turn, `C/C(O)=C(\C#N)C(=O)Nc1cc(OC(C)C)c(C(=O)Nc2ccccc2Cl)cc1F` displayed an inhibition in [1] of 62.7%. Moreover, in [2], the IC50 was found to be 47.2 nM.
`C/C(O)=C(\C#N)C(=O)Nc1cc(OC(C)C)c(C(=O)Nc2ccc(F)c(Cl)c2)cc1F` yielded an inhibition in data set [1] of 4.9%.
For the compound `CCOc1cc(NC(=O)/C(C#N)=C(/C)O)c(F)cc1C(=O)Nc1c(Cl)cccc1Cl`, the IC50 in the data set with Raji came out at 573 nM; in [2] it was 17.4 nM; with L02, 2710 nM. In data set [1], the inhibition is 85.8%. Moreover, in the data set “in vitro”, the selectivity ratio was 4.7.
For the compound `CCOc1cc(NC(=O)/C(C#N)=C(/C)O)c(F)cc1C(=O)Nc1c(F)cccc1F`, the inhibition in data set [1] was 40.2%.
For the compound `C/C(O)=C(\C#N)C(=O)Nc1ccc(C(=O)Nc2c(F)cccc2F)c(OC(C)C)c1`, in data set [1], the inhibition was found to be 53.4%.
For `COc1cc(NC(=O)/C(C#N)=C(/C)O)c(F)cc1C(=O)Nc1c(F)cccc1Cl`, the inhibition in data set [1] is 67.7%. The same compound came in with an IC50 in data set [2] of 31.1 nM.
As for `COc1cc(NC(=O)/C(C#N)=C(/C)O)c(F)cc1C(=O)Nc1c(F)cccc1Br`, the inhibition in [1] turned out to be 78.5%. In data set [2], this compound gave an IC50 of 29.5 nM.
On to `COc1cccc(-c2cc(F)c(Nc3ncccc3C(=O)O)c(F)c2)c1` [ASLAN-003], for which the IC50 with Raji is 300 nM; in the data set with A-375, 700 nM; in the data set with HCT-116, 5100 nM; in the data set with K562 it was 2700 nM; with A549, 900 nM; in the data set on SK-MEL-28, 1300 nM. Moreover, half-maximal inhibition in the data set on L02 (IC50) was put at 487 nM. This compound registered an inhibition in data set [1] of 66.8%.
Consider `C/C(O)=C(\C#N)C(=O)Nc1cc(O[C@@H](C)C(F)(F)F)c(C(=O)Nc2c(Cl)cccc2Cl)cc1F`, for which the values for the IC50 (in the data set with Raji; in data set [2]; in the data set on L02) were 32.1 nM, 5.7 nM and 452 nM, respectively. For the same compound, the solubility (commonly how much of the substance goes into solution per volume) in “physchem” was 2400 µg/mL (≈ 4.61 mM). Besides, the inhibition in data set [1] was 96.4%. Further, the selectivity ratio in the data set “in vitro” worked out at 14.1.
`COc1ccccc1NC(=O)c1cc(F)c(NC(=O)/C(C#N)=C(/C)O)cc1OC(C)C` displayed an inhibition in data set [1] of 5.3%.
The compound `COc1cc(NC(=O)/C(C#N)=C(/C)O)c(F)cc1C(=O)Nc1c(F)cccc1F` came in with an inhibition in data set [1] of 27.4%.
With `C/C(O)=C(\C#N)C(=O)Nc1cc(F)c(C(=O)Nc2c(F)cccc2Cl)cc1F`, in [1], the inhibition was 26.4%.
In the case of `C/C(O)=C(\C#N)C(=O)Nc1cc(OC(C)C)c(C(=O)Nc2c(F)cccc2F)cc1F`, in [1], the inhibition is 70.5%. Moreover, half-maximal inhibition in [2] (IC50) was put at 36.2 nM.
Take `C/C(O)=C(\C#N)C(=O)Nc1cc(O[C@@H](C)C(F)(F)F)c(C(=O)Nc2c(Br)cccc2Br)cc1F`: the IC50 was 35.1 nM in the data set on Raji, 7.3 nM in [2] and 426 nM in the data set with L02. Further, the solubility in “physchem” stood at 2100 µg/mL (≈ 3.45 mM). Further, the inhibition in data set [1] came out at 96.9%. The selectivity ratio in “in vitro” was determined as 13.1.
Consider `C/C(O)=C(\C#N)C(=O)Nc1cc(OC(C)C)c(C(=O)Nc2c(F)cccc2Br)cc1F`, for which the IC50 with Raji turned out to be 347 nM; in data set [2] it was 18.2 nM; in the data set on L02 it was 2100 nM. Besides, in data set [1], the inhibition is 85.4%. In addition, the selectivity ratio in the data set “in vitro” is 6.1.
Regarding `C/C(O)=C(\C#N)C(=O)Nc1cc(OC(C)C)c(C(=O)Nc2c(F)cccc2Cl)cc1F`, the IC50 came out at 300 nM in the data set with Raji; 1100 nM in the data set with A-375; 7300 nM with HCT-116; 2300 nM in the data set on K562; 22.4 nM in [2]; 900 nM in the data set with A549. For the same compound, the IC50 in the data set on SK-MEL-28 turned out to be 300 nM. Besides, the solubility in “physchem” turned out to be 465 µg/mL (≈ 1.03 mM). In data set [1], this compound had an inhibition of 70.7%.
With `C/C(O)=C(\C#N)C(=O)Nc1cc(O[C@@H](C)C(F)(F)F)c(C(=O)Nc2c(F)cccc2Br)cc1F`, the IC50 with Raji was found to be 13.9 nM; in data set [2], 6.8 nM; in the data set with L02, 526 nM. The concentration in solution in the data set “physchem” (solubility) was 1700 µg/mL (≈ 3.1 mM). This compound displayed an inhibition in data set [1] of 93.1%. Moreover, the selectivity ratio in “in vitro” came to 37.7.
Regarding `C/C(O)=C(\C#N)C(=O)Nc1cc(OC(C)C)c(C(=O)Nc2c(Cl)cccc2Cl)cc1F`, the results for the IC50 (in the data set on Raji; in [2]; in the data set with L02) were 450 nM, 13.1 nM and 2620 nM, respectively. The compound also yielded an inhibition in [1] of 89.4%. Further, the selectivity ratio in the data set “in vitro” turned out to be 5.8.
In turn, `COc1cccc(NC(=O)c2cc(F)c(NC(=O)/C(C#N)=C(/C)O)cc2OC(C)C)c1` gave an inhibition in data set [1] of 21.3%.
